Measured values as given in patent publication US20240383852A1, “ANTI-VIRAL COMPOUNDS” (INFEX Therapeutics Limited, priority 2021, published 2024).
Structures can show the parent of a compound that is named as a salt. Where two headings read alike, the source gives them in different places.

What was measured:
SARS-CoV-2 PLpro = target: T1, SARS-CoV-2 PLpro (Severe acute respiratory syndrome coronavirus 2, UniProt P0DTD1); assay: biochemical
T1 construct: containing 60 nM papain-like protease

[1] = test system: human Hep G2 cells (ATCC HB-8065); assay: Cytotoxicity in Hep G2 cells (CellTiter-Glo); type: cell-based
[2] = 60 nM papain-like protease, 50 μM Z-RLRGG-AMC, pH 7.5, 37° C., read-out: SARS-CoV-2 PLpro IC50
[3] = Hep G2 cells, 100 μM test article, 24-hour exposure

Row | Compound | IC50 (SARS-CoV-2 PLpro; [2]) | % Cell Viability [1, 3] | IC50 (SARS-CoV-2 PLpro) | % Cell Viability ([1]; human, 24 h, 100 μM)
1 | COc1cc(-c2cnn(C)c2)cc([C@@H](C)NC(=O)c2cc(N3CCCNCC3)ccc2C)c1 [Example 263, 5-(1,4-Diazepan-1-yl)-N-[(1R)-1-[3-methoxy-5-(1-methylpyrazol-4-yl)phenyl]ethyl]-2-methyl-benzamide] | < 2000 nM | 56.4% | – | –
2 | COc1ccc([C@@H](C)NC(=O)c2cc(N3CCN(C)CC3)ccc2C)cc1OC [Example 23, N-[(1R)-1-(3,4-Dimethoxyphenyl)ethyl]-2-methyl-5-(4-methylpiperazin-1-yl)benzamide] | < 2000 nM | 87.3% | – | –
3 | Cc1ccc(N2CCN(C)CC2)cc1C(=O)N[C@H](C)c1cccc(-c2ccc(N3CCNCC3)cc2)c1 [Example 73, 2-Methyl-5-(4-methylpiperazin-1-yl)-N-[(1R)-1-[3-(4-piperazin-1-ylphenyl)phenyl]ethyl]benzamide dihydrochloride salt] | < 2000 nM | 0.6% | – | –
4 | Cc1ccc(N2CC3(CN(CCC(=O)O)C3)C2)cc1C(=O)N[C@H](C)c1cccc2ccccc12 [Example 168, 3-[2-[4-Methyl-3-[[(1R)-1-(1-naphthyl)ethyl]carbamoyl]phenyl]-2,6-diazaspiro[3.3]heptan-6-yl]propanoic acid] | < 5000 nM | 111.2% | – | –
5 | COC(=O)CCN1CCN(c2cccc(C(=O)N[C@H](C)c3cccc4ccccc34)c2)CC1 [Example 160, Methyl 3-[4-[3-[[(1R)-1-(1-naphthyl)ethyl]carbamoyl]phenyl]piperazin-1-yl]propanoate] | < 100000 nM | 101.8% | – | –
6 | Cc1ccc(N2CCN(C)CC2)cc1C(=O)N[C@H](C)c1cccc(N2CCNCC2)c1 [Example 105, 2-Methyl-5-(4-methylpiperazin-1-yl)-N-[(1R)-1-(3-piperazin-1-ylphenyl)ethyl]benzamide] | < 5000 nM | 113.3% | – | –
7 | C[C@@H](NC(=O)c1cc(C2=CCNC2)ccc1Cl)c1cccc2ccccc12 [Example 146, 2-Chloro-5-(2,5-dihydro-1H-pyrrol-3-yl)-N-[(1R)-1-(1-naphthyl)ethyl]benzamide Hydrochloride Salt] | < 2000 nM | 0.2% | – | –
8 | CNCCN(C)C(=O)c1cccc(-c2cccc([C@@H](C)NC(=O)c3cc(N4CCN(C)CC4)ccc3C)c2)c1 [Example 99, 2-Methyl-N-[(1R)-1-[3-[3-[methyl-[2-(methylamino)ethyl]carbamoyl]phenyl]phenyl]ethyl]-5-(4-methylpiperazin-1-yl)benzamide Hydrochloride Salt] | < 2000 nM | 104.6% | – | –
9 | C[C@@H](NC(=O)c1cccc(C2CCNCC2)c1)c1cccc2ccccc12 [Example 6, N-[(1R)-1-(1-Naphthyl)ethyl]-3-(4-piperidyl)benzamide Hydrochloride Salt] | < 20000 nM | 0.6% | – | –
10 | COc1cc(-c2cn(C)nc2C)cc([C@@H](C)NC(=O)c2cc(N3C[C@H]4CC[C@@H](C3)N4)ccc2C)c1 [Example 270, 5-[(1S,5R)-3,8-Diazabicyclo[3.2.1]octan-3-yl]-N-[(1R)-1-[3-(1,3-dimethylpyrazol-4-yl)-5-methoxy-phenyl]ethyl]-2-methyl-benzamide] | – | – | < 2000 nM | 22.6%
11 | Cc1ccc(N2CCN(C)CC2)cc1C(=O)N[C@H](C)c1cccc(-c2cccc(C(=O)N3CCOCC3)c2)c1 [Example 92, 2-Methyl-5-(4-methylpiperazin-1-yl)-N-[(1R)-1-[3-[3-(morpholine-4-carbonyl)phenyl]phenyl]ethyl]benzamide] | < 2000 nM | 76.9% | – | –
12 | COc1ccc([C@@H](C)NC(=O)c2cc(N3CCN(C)CC3)ccc2C)cc1OCCO [Example 294, N-[(1R)-1-[3-(2-Hydroxyethoxy)-4-methoxy-phenyl]ethyl]-2-methyl-5-(4-methylpiperazin-1-yl)benzamide] | < 5000 nM | 120.9% | – | –
13 | Cc1ccc(N2CCN(C)CC2)cc1C(=O)N[C@H](C)c1cc(-c2ccccc2)cs1 [Example 231, 2-Methyl-5-(4-methylpiperazin-1-yl)-N-[(1R)-1-(4-phenyl-2-thienyl)ethyl]benzamide] | < 2000 nM | 1.6% | – | –
14 | Cc1ccc(N2CCN(C)CC2)cc1C(=O)N[C@H](C)c1cccc(-c2csc(C(=O)N(C)C)c2)c1 [Example 101, N,N-Dimethyl-4-[3-[(1R)-1-[[2-methyl-5-(4-methylpiperazin-1-yl)benzoyl]amino]ethyl]phenyl]thiophene-2-carboxamide] | < 2000 nM | 88.1% | – | –
15 | Cc1ccc(N2CCN(C)CC2)cc1C(=O)N[C@H](C)c1cccc2ccccc12 [Example 21, 2-Methyl-5-(4-methylpiperazin-1-yl)-N-[(1R)-1-(1-naphthyl)ethyl]benzamide] | < 2000 nM | 56.9% | – | –
16 | Cc1ccc(N2CCN(C)CC2)cc1C(=O)N[C@H](C)c1cccc(-c2cccc(CN(C)C)c2)c1 [Example 68, N-[(1R)-1-[3-[3-[(Dimethylamino)methyl]phenyl]phenyl]ethyl]-2-methyl-5-(4-methylpiperazin-1-yl)benzamide Dihydrochloride Salt] | < 2000 nM | 48.9% | – | –
17 | COc1cc(-c2cnn(C)c2)cc([C@@H](C)NC(=O)c2cc(N3C[C@H]4CC[C@@H](C3)N4CC3CC3)ccc2C)c1 [Example 274, 5-[(1R,5S)-8-(Cyclopropylmethyl)-3,8-diazabicyclo[3.2.1]octan-3-yl]-N-[(1R)-1-[3-methoxy-5-(1-methylpyrazol-4-yl)phenyl]ethyl]-2-methyl-benzamide] | – | – | < 2000 nM | 38.7%
18 | COc1cc(-c2cnn(C)c2)cc([C@@H](C)NC(=O)c2cc(N3CCCN(C)CC3)ccc2C)c1 [Example 247, N-[(1R)-1-[3-Methoxy-5-(1-methylpyrazol-4-yl)phenyl]ethyl]-2-methyl-5-(4-methyl-1,4-diazepan-1-yl)benzamide] | < 2000 nM | 56.7% | – | –
19 | Cc1ccc(N2CCN(C)CC2)cc1C(=O)N[C@H](C)c1cccc(C(O)CO)c1 (stereo partly drawn) [Example 69, N-[(1R)-1-[3-(1,2-Dihydroxyethyl)phenyl]ethyl]-2-methyl-5-(4-methylpiperazin-1-yl)benzamide] | < 10000 nM | 107.0% | – | –
20 | Cc1ccc(N2CCN(C)CC2)cc1C(=O)N[C@H](C)c1cccc(C#N)c1 [Example 34, N-[(1R)-1-(3-Cyanophenyl)ethyl]-2-methyl-5-(4-methylpiperazin-1-yl)benzamide] | < 10000 nM | 97.8% | – | –
21 | COc1ccc([C@@H](C)NC(=O)c2cc(N3CCN(C)CC3)ccc2C)cc1-c1ccsc1 [Example 206, N-[(1R)-1-[4-Methoxy-3-(3-thienyl)phenyl]ethyl]-2-methyl-5-(4-methylpiperazin-1-yl)benzamide] | < 2000 nM | 0.8% | – | –
22 | Cc1ccc(N2CCN(C)CC2)cc1C(=O)N[C@H](C)c1cc(F)cc(-c2cnn(C)c2)c1 [Example 229, N-[(1R)-1-[3-Fluoro-5-(1-methylpyrazol-4-yl)phenyl]ethyl]-2-methyl-5-(4-methylpiperazin-1-yl)benzamide] | < 2000 nM | 66.7% | – | –
23 | COc1cccc([C@@H](C)NC(=O)c2cc(N3CCN(C)CC3)ccc2C)c1 [Example 29, N-[(1R)-1-(3-Methoxyphenyl)ethyl]-2-methyl-5-(4-methylpiperazin-1-yl)benzamide] | < 5000 nM | 100% | – | –
